pIC50: −log10 of the molar value.
Target: Human TrkA Protein (Homo sapiens (Human), UniProt P04629)
Experiment: Evaluation of Binding Activity for Human TrkA Protein (TrkA LanthaScreen Eu Kinase Binding Assay)
Conditions: TrkA enzyme, Kinase Tracer 236, TR-FRET, 60 minutes at room temperature
Method: (Pharmacological Experimental Example 1): Evaluation of Binding Activity for Human TrkA Protein
Measurement was carried out using TrkA LanthaScreen (registered trademark) Eu Kinase Binding Assay (ThermoFisher SCIENTIFIC). To a 384 well plate (Corning), 2.5 μL of the test compound having various concentrations and diluted with Kinase buffer (ThermoFisher SCIENTIFIC) and 2.5 μL of 15 nM TrkA enzyme (ThermoFisher SCIENTIFIC) were added. Moreover, […] Eu-anti-His Tag antibody (ThermoFisher SCIENTIFIC) and 5 μL of 30 nM Kinase (registered trademark) Tracer 236 (ThermoFisher SCIENTIFIC) were added, followed by reaction at room temperature for 60 minutes. After the reaction, the fluorescence intensity of Europium (Emission wavelength 615 nm) and TR-FRET (Emission wavelength 665 nm) with an excitation wavelength of 340 nm were measured with EnVision 2100 (PerkinElmer) to calculate the fluorescence ratio as the amount of the test compound and the TrkA enzyme bonded. The inhibitory activity (IC50 value) of each test compound was calculated with the fluorescence ratio of the well to which a solvent was added instead of the test compound being 0% and the fluorescence ratio of the well without addition of the TrkA protein being 100%.
In Table 1, […] mean Compounds 1 to 62 synthesized in accordance with Examples 1 to 62 described later.

Sequence of Human TrkA Protein (P04629 33-796): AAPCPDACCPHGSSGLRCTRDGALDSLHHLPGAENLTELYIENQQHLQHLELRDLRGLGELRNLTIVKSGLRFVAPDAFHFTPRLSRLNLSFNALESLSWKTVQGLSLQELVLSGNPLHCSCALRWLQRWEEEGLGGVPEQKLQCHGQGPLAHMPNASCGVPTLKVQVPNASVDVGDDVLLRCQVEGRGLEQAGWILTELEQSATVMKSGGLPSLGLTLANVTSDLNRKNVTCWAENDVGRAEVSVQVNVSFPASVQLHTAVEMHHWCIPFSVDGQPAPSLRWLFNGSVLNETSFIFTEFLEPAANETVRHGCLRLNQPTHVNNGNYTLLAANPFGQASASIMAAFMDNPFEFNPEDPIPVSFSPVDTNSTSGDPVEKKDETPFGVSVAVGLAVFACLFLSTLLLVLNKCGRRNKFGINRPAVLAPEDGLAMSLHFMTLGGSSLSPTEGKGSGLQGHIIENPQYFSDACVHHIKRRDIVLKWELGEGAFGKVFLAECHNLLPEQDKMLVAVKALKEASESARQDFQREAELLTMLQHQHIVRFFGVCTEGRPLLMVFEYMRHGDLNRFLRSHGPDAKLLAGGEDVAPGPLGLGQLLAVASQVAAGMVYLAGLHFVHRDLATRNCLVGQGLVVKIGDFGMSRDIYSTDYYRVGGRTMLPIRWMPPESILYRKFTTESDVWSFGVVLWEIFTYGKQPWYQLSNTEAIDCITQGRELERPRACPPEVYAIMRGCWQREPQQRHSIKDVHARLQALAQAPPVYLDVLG

Compound | pIC50
CC1(C)C[C@@H](O)[C@H](NC(=O)Nc2cccnc2-c2ccccc2)c2ccccc21 (racemic) [Compound 1, rac-1-((1R,2R)-2-hydroxy-4,4-dimethyl-1,2,3,4-tetrahydronaphthalen-1-yl)-3-(2-phenylpyridin-3-yl)urea] | ≥ 7.30
Cc1cnc(-c2ccccc2)c(NC(=O)N[C@@H]2c3ccccc3C(C)(C)C[C@H]2O)c1 (racemic) [Compound 2, rac-1-((1R,2R)-2-hydroxy-4,4-dimethyl-1,2,3,4-tetrahydronaphthalen-1-yl)-3-(5-methyl-2-phenylpyridin-3-yl)urea] | ≥ 7.30
Cc1ncc(-c2nc(-c3ccccc3)c(NC(=O)N[C@@H]3c4ccccc4C(C)(C)C[C@H]3O)cc2C)cn1 (racemic) [Compound 3, rac-1-((1R,2R)-2-hydroxy-4,4-dimethyl-1,2,3,4-tetrahydronaphthalen-1-yl)-3-(5-methyl-6-(2-methylpyrimidin-5-yl)-2-phenylpyridin-3-yl)urea] | ≥ 7.30
Cc1cc(NC(=O)N[C@@H]2c3ccccc3C(C)(C)C[C@H]2O)c(-c2ccccc2)nc1-c1cnn(C)c1 (racemic) [Compound 4, rac-1-((1R,2R)-2-hydroxy-4,4-dimethyl-1,2,3,4-tetrahydronaphthalen-1-yl)-3-(5-methyl-6-(1-methyl-1H-pyrazol-4-yl)-2-phenylpyridin-3-yl)urea] | ≥ 7.30
Cc1cc(NC(=O)N[C@@H]2c3ccccc3C(C)(C)C[C@H]2O)c(-c2ccccc2)nc1-c1cn[nH]c1 (racemic) [Compound 5, rac-1-((1R,2R)-2-hydroxy-4,4-dimethyl-1,2,3,4-tetrahydronaphthalen-1-yl)-3-(5-methyl-6-(1H-pyrazol-4-yl)-2-phenylpyridin-3-yl)urea] | ≥ 7.30
Cc1cc(NC(=O)N[C@@H]2c3ccccc3C(C)(C)C[C@H]2O)c(-c2ccccc2)nc1-c1ccc(O)nc1 (racemic) [Compound 6, rac-1-(6′-hydroxy-3-methyl-6-phenyl-[2,3′-bipyridin]-5-yl)-3-((1R,2R)-2-hydroxy-4,4-dimethyl-1,2,3,4-tetrahydronaphthalen-1-yl)urea] | ≥ 7.30
Cc1cnc(-c2ccccc2)c(NC(=O)N[C@@H]2c3ccc(Br)cc3C(C)(C)C[C@H]2O)c1 (racemic) [Compound 22, rac-1-((1R,2R)-6-bromo-2-hydroxy-4,4-dimethyl-1,2,3,4-tetrahydronaphthalen-1-yl)-3-(5-methyl-2-phenylpyridin-3-yl)urea] | ≥ 7.30
Cc1cc(NC(=O)N[C@@H]2c3ccc(Br)cc3C(C)(C)C[C@H]2O)c(-c2ccccc2)nc1C(N)=O (racemic) [Compound 23, rac-5-(3-((1R,2R)-6-bromo-2-hydroxy-4,4-dimethyl-1,2,3,4-tetrahydronaphthalen-1-yl)ureido)-3-methyl-6-phenylpicolinamide] | ≥ 7.30
Cc1cc(NC(=O)N[C@@H]2c3ccccc3C(C)(C)C[C@H]2O)c(-c2ccccc2)nc1C(N)=O (racemic) [Compound 24, rac-5-(3-((1R,2R)-2-hydroxy-4,4-dimethyl-1,2,3,4-tetrahydronaphthalen-1-yl)ureido)-3-methyl-6-phenylpicolinamide] | ≥ 7.30
Cc1cc(NC(=O)N[C@@H]2c3ccccc3C(C)(C)C[C@H]2O)c(-c2ccccc2)nc1C(=O)NCC(C)(C)O (racemic) [Compound 25, rac-N-(2-hydroxy-2-methylpropyl)-5-(3-((1R,2R)-2-hydroxy-4,4-dimethyl-1,2,3,4-tetrahydronaphthalen-1-yl)ureido)-3-methyl-6-phenylpicolinamide] | ≥ 7.30
Cc1cnc(C2CCOCC2)c(NC(=O)N[C@@H]2c3ccccc3C(C)(C)C[C@H]2O)c1 (racemic) [Compound 26, rac-1-((1R,2R)-2-hydroxy-4,4-dimethyl-1,2,3,4-tetrahydronaphthalen-1-yl)-3-(5-methyl-2-(tetrahydro-2H-pyran-4-yl)pyridin-3-yl)urea] | ≥ 7.30
Cc1cc(NC(=O)N[C@@H]2c3ccccc3C(C)(C)C[C@H]2O)c(C2CCOCC2)nc1C(N)=O (racemic) [Compound 27, rac-5-(3-((1R,2R)-2-hydroxy-4,4-dimethyl-1,2,3,4-tetrahydronaphthalen-1-yl)ureido)-3-methyl-6-(tetrahydro-2H-pyran-4-yl)picolinamide] | 6.00 to 7.30
Cc1ncc(-c2nc(C3CCOCC3)c(NC(=O)N[C@@H]3c4ccccc4C(C)(C)C[C@H]3O)cc2C)cn1 (racemic) [Compound 28, rac-1-((1R,2R)-2-hydroxy-4,4-dimethyl-1,2,3,4-tetrahydronaphthalen-1-yl)-3-(5-methyl-6-(2-methylpyrimidin-5-yl)-2-(tetrahydro-2H-pyran-4-yl)pyridin-3-yl)urea] | ≥ 7.30
Cc1cc(NC(=O)N[C@@H]2c3ccccc3C(C)(C)C[C@H]2O)c(C2CCOCC2)nc1-c1cnn(C)c1 (racemic) [Compound 29, rac-1-((1R,2R)-2-hydroxy-4,4-dimethyl-1,2,3,4-tetrahydronaphthalen-1-yl)-3-(5-methyl-6-(1-methyl-1H-pyrazol-4-yl)-2-(tetrahydro-2H-pyran-4-yl)pyridin-3-yl)urea] | ≥ 7.30
Cc1cc(NC(=O)N[C@@H]2c3ccccc3C(C)(C)C[C@H]2O)c(C2CCOCC2)nc1-c1cn[nH]c1 (racemic) [Compound 30, rac-1-((1R,2R)-2-hydroxy-4,4-dimethyl-1,2,3,4-tetrahydronaphthalen-1-yl)-3-(5-methyl-6-(1H-pyrazol-4-yl)-2-(tetrahydro-2H-pyran-4-yl)pyridin-3-yl)urea] | ≥ 7.30
Cc1cc(NC(=O)N[C@@H]2c3ccccc3C(C)(C)C[C@H]2O)c(C2CCOCC2)nc1-c1ccc(O)nc1 (racemic) [Compound 31, rac-1-(6′-hydroxy-3-methyl-6-(tetrahydro-2H-pyran-4-yl)-[2,3′-bipyridin]-5-yl)-3-((1R,2R)-2-hydroxy-4,4-dimethyl-1,2,3,4-tetrahydronaphthalen-1-yl)urea] | ≥ 7.30
Cc1cnc(-c2ccccc2)c(NC(=O)N[C@@H]2c3cc(Br)ccc3C(C)(C)C[C@H]2O)c1 (racemic) [Compound 32, rac-1-((1R,2R)-7-bromo-2-hydroxy-4,4-dimethyl-1,2,3,4-tetrahydronaphthalen-1-yl)-3-(5-methyl-2-phenylpyridin-3-yl)urea] | ≥ 7.30
COCc1ccc2c(c1)[C@@H](NC(=O)Nc1cc(C)cnc1C1CCOCC1)[C@H](O)CC2(C)C (racemic) [Compound 33, rac-1-((1R,2R)-2-hydroxy-7-(methoxymethyl)-4,4-dimethyl-1,2,3,4-tetrahydronaphthalen-1-yl)-3-(5-methyl-2-(tetrahydro-2H-pyran-4-yl)pyridin-3-yl)urea] | ≥ 7.30
Cc1ncc(-c2nc(-c3ccccc3)c(NC(=O)N[C@@H]3c4cc(F)ccc4C(C)(C)C[C@H]3O)cc2C)cn1 (racemic) [Compound 34a] | ≥ 7.30
Cc1ncc(-c2nc(-c3ccccc3)c(NC(=O)N[C@@H]3c4ccc(F)cc4C(C)(C)C[C@H]3O)cc2C)cn1 (racemic) [Compound 35a] | ≥ 7.30
CC1(C)C[C@@H](O)[C@H](NC(=O)Nc2cccnc2-c2ccccc2)c2cc(F)c(F)cc21 (racemic) [Compound 36, rac-1-((1R,2R)-6,7-difluoro-2-hydroxy-4,4-dimethyl-1,2,3,4-tetrahydronaphthalen-1-yl)-3-(2-phenylpyridin-3-yl)urea] | ≥ 7.30
Cc1cnc(-c2ccccc2)c(NC(=O)N[C@@H]2c3cc(F)c(F)cc3C(C)(C)C[C@H]2O)c1 (racemic) [Compound 37, rac-1-((1R,2R)-6,7-difluoro-2-hydroxy-4,4-dimethyl-1,2,3,4-tetrahydronaphthalen-1-yl)-3-(5-methyl-2-phenylpyridin-3-yl)urea] | ≥ 7.30
Cc1cnc(-c2ccccc2)c(NC(=O)N[C@@H]2c3cc(F)c(F)cc3C(C)(C)C[C@H]2O)c1 (racemic) [Compound 37a] | ≥ 7.30
Cc1ccnc(-c2ccccc2)c1NC(=O)N[C@@H]1c2cc(F)c(F)cc2C(C)(C)C[C@H]1O (racemic) [Compound 38, rac-1-((1R,2R)-6,7-difluoro-2-hydroxy-4,4-dimethyl-1,2,3,4-tetrahydronaphthalen-1-yl)-3-(4-methyl-2-phenylpyridin-3-yl)urea] | 6.00 to 7.30
Cc1ccc(NC(=O)N[C@@H]2c3cc(F)c(F)cc3C(C)(C)C[C@H]2O)c(-c2ccccc2)n1 (racemic) [Compound 39, rac-1-((1R,2R)-6,7-difluoro-2-hydroxy-4,4-dimethyl-1,2,3,4-tetrahydronaphthalen-1-yl)-3-(6-methyl-2-phenylpyridin-3-yl)urea] | ≥ 7.30
Cc1cc(NC(=O)N[C@@H]2c3cc(F)c(F)cc3C(C)(C)C[C@H]2O)c(-c2ccccc2)nc1C(N)=O (racemic) [Compound 40, rac-5-(3-((1R,2R)-6,7-difluoro-2-hydroxy-4,4-dimethyl-1,2,3,4-tetrahydronaphthalen-1-yl)ureido)-3-methyl-6-phenylpicolinamide] | ≥ 7.30
Cc1nnc(CNC(=O)c2nc(-c3ccccc3)c(NC(=O)N[C@@H]3c4cc(F)c(F)cc4C(C)(C)C[C@H]3O)cc2C)o1 (racemic) [Compound 41, rac-5-(3-((1R,2R)-6,7-difluoro-2-hydroxy-4,4-dimethyl-1,2,3,4-tetrahydronaphthalen-1-yl)ureido)-3-methyl-N-((5-methyl-1,3,4-oxadiazol-2-yl)methyl)-6-phenylpicolinamide] | ≥ 7.30

From patent US10399945B2, “Tetrahydronaphthyl urea derivative” (MOCHIDA PHARMACEUTICAL CO., LTD., priority 2017, dated 2019)
